In patent US20190161483A1, “METHODS FOR USING FXR AGONISTS” (Novartis AG, priority 2017, published 2019):

What was measured:
NASH subjects = conditions: FLINT trial; placebo 6%; cited from earlier work
NASH patients = assay: Tropifexor 140-250 μg in patients with mild to moderate NASH and F2/F3 fibrosis; type: in vivo, human; conditions: dose of about 140 μg to about 250 μg
From the text: Adult male and female patients with EITHER histologic evidence of NASH on liver biopsy within 2 years prior to randomization and elevated ALT, OR phenotypic diagnosis of NASH based on elevated ALT, Type 2 diabetes mellitus or elevated HbA1c and increased BMI, in both cases accompanied by liver fat >10% on centrally-read MRI.
Diagnosis of NASH: Adequate liver biopsy sample for evaluation by Central Reader to confirm Histologic evidence of NASH based on liver biopsy obtained during the Screening period or within 6 months before randomization with a diagnosis consistent with NASH, fibrosis level F2 or F3, and no diagnosis of alternative chronic liver diseases._AND_ALT ≥43 IU/L (males) or ≥28 IU/L (females).
Patients are assigned at the baseline visit to one of the following 3 treatment arms in a ratio of 1:1:1 in a blinded manner. Placebo capsules will be given to maintain blinding.
Arm 3: Once daily (morning, fasting) treatment with matching placebo for 48 weeks
The efficacy variables are: MRI for hepatic fat fraction, Liver Function Test, Liver histology, Coagulation test, Markers of liver fibrosis, NAFLD Fibrosis score, Fasting lipids, Fasting insulin and glucose, Soluble biomarkers.

[1] = Oral gavage toxicity study in dogs for up to 39 weeks; conditions: dog, in vivo
FGRS = FGRS effects (specificity)
STAM mice = assay: STAM model of NASH
Experimental: Further experiments in the STAM model were performed: 2-day old male C57BI/6J mice were injected with streptozotocin and placed on a high-fat diet (HFD) from weeks 4-12 (HFD-32; CLEA-Japan, Tokyo, Japan). […] Hematoxylin & eosin (H&E)-stained sections were evaluated for nonalcoholic fatty liver disease (NAFLD) activity score (NAS) according to previously defined criteria. Liver total lipid-extracts were isolated, and triglycerides were measured using the Triglyceride E-test (Wako Pure Chemical Industries, Ltd., Japan).
(§1) Liver sections were fixed in 4% paraformaldehyde for 48 h and shipped for histopathological analysis. Liver damage and collagen deposition were assessed by H&E staining and picrosirius red staining, respectively. […] Quantification of images was done with a positive pixel count algorithm using Aperio software (Aperio, Inc., Vista, Calif.).

FGF19 = assay: Pharmacodynamic marker FGF19 with increasing doses; type: in vivo; conditions: increasing doses up to 3000 μg
[2] = Exposure prediction and exposure-response analysis in NASH patients; type: in vivo, human
NASH mice = assay: Diet-induced (AMLN diet) obese, insulin-resistant NASH model; type: in vivo, mouse
From the text: A separate model for diet-induced NASH was developed as described by Trevaskis et al. Male C57BI6 mice aged ˜6 weeks were maintained on a high fat (40% kcal; Primex), high fructose (22% by weight), and high cholesterol (2% by weight) diet (Research Diets Inc., New Brunswick, N.J. cat. no. D09100301) for 26 weeks to induce NASH. Control animals received low-fat diet (10% kcal) with no fructose or cholesterol (Research Diets, cat. no. D09100304). […] . Expression of collagen, type I, alpha 1 (Col1a1) and tissue inhibitor of metalloproteinase 1 (Timp1) genes was analyzed by real time quantitative PCR.
. NASH was established in mice by feeding a high trans-fat, high fructose, and high cholesterol diet (AMLN diet) for 26 weeks followed by compound treatment for an additional 4 weeks. […] . […] .

[3] = system: ANIT-induced cholestatic rats; assay: ANIT-induced cholestasis rat model
Experimental: Rats were sacrificed 3-5 h after the last dose, blood samples were collected by cardiac puncture, and serum biomarkers of cholestasis, namely alanine transaminase (ALT), aspartate transaminase (AST), alkaline phosphatase (ALP), total bilirubin, total BA, and gamma-glutamyl transpeptidase (GGT) were analyzed.
as §1

In the case of `CC[C@H]1[C@@H](O)[C@@H]2[C@H](CC[C@]3(C)[C@@H]([C@H](C)CCC(=O)O)CC[C@@H]23)[C@@]2(C)CC[C@@H](O)C[C@@H]12` [OCA, 6α-ethyl-chenodeoxycholic acid], the patients with pruritus (NASH subjects) is given as 23%.
For `O=C(O)c1cc(F)c2nc(N3C4CC[C@H]3C[C@H](OCc3c(-c5ccccc5OC(F)(F)F)noc3C3CC3)C4)sc2c1` [tropifexor, 2-[(1R,3r,5S)-3-({5-cyclopropyl-3-[2-(trifluoromethoxy)phenyl]-1,2-oxazol-4-yl}methoxy)-8-azabicyclo[3.2.1]octan-8-yl]-4-fluoro-1,3-benzothiazole-6-carboxylic acid], the “patients with liver fibrosis improvement (at least 1 stage) with no worsening of NAS” value (NASH patients) was “about 50%”, the “patients with normalization of liver enzymes” value (NASH patients) was no less than 50% and the “patients with resolution of NASH (NAS 0 or 1) with no worsening of liver fibrosis” value (NASH patients) was “about 30%”. The “pruritus outcomes (NASH PRO, 5-D pruritus or VAS)” value (NASH patients) was “no significant pruritus outcomes”, the “reduction of hepatic fat, absolute” value (NASH patients) was 5% and the AUC(0-t) ([1]; female) was 507 ng·h/mL. The AUC(0-t) ([1]; male) was 898 ng·h/mL, the FGRS effects (FGRS) was “no FGRS effects” and the “NAFLD activity score (NAS)” value (STAM mice; doses 0.1 and 0.3 mg/kg, qd orally weeks 9-12) was “significant decrease”. The fibrosis area (STAM mice; in comparison with baseline group) was “decreased in comparison with baseline group”, the “pericellular fibrosis (Sirius Red-positive areas)” value (STAM mice; mouse, in vivo) was “statistically significant dose-dependent reduction” and the liver triglycerides (STAM mice; tropifexor qd orally weeks 9-12, relative to baseline group) was “reduction in liver triglycerides”. The FGF19 (FGF19) was “continues to rise”, the predicted exposure ([2]; 200 μg daily in NASH patients) was “approximately 80 ng·hr/ml” and the “NASH patients achieving an AUC >40 ng*h/mL” value ([2]; 200 μg dose) was roughly 95%. For the same compound, the AUC ([2]; human, in vivo, oral, 200 ug, read-out: exposure level (AUC) in NASH patients) was 80 ng·h/mL, the “IBA positive staining (inflammation)” value (NASH mice; 0.3 and 0.9 mg/kg dose groups) was “normalized to the same level of the control diet group” and the “liver histology: steatosis, ballooning, and inflammation” value (NASH mice; 0.3 and 0.9 mg/kg dose groups) was “completely reverted”. The “collagen deposition in liver (trichrome staining)” value (NASH mice; even to levels lower than low-fat diet control mice) was “strongly abrogates”, the ALT/AST (NASH mice; high dose) was “reduced ALT/AST to an even greater extent” and the hepatic crown-like structures (NASH mice; mid- and high dose) was “completely eliminated”. For the same compound, the “ALT and AST levels” value (NASH mice; mid-dose level) was “normalized ALT and AST levels to that of control animals”, the “mRNA levels of fibrogenic markers Col1a1 and TIMP1” value (NASH mice; mouse, in vivo) was “dramatically reduced” and the “steatosis by quantification of liver triglycerides” value (NASH mice; mouse, in vivo) was “Dose-dependent reduction in steatosis”. For the same compound, the “ALT and AST” value (NASH mice; relative to vehicle-treated controls) was “dose-dependent reduction”, the “levels of most cholestatic markers” value ([3]; 1.0 mg/kg dose, oral qd 5 days) was “normalized to corresponding levels of vehicle-treated non-cholestatic control animals” and the “collagen deposition and liver fibrosis” value ([3]; dose-dependent manner) was “highly reduced”. The “quantitation of collagen deposition (fibrosis)” value ([3]; dose-dependent manner) was “significantly decreased”, the “AST, ALT, total BAs, total bilirubin, and GGT levels” value ([3]; doses as low as 0.3 mg/kg, oral qd 5 days) was “marked reduction” and the “liver histology: necrosis of the bile duct epithelium, bile duct hyperplasia, inflammatory cell infiltrates” value ([3]; versus vehicle-treated cholestatic rats) was “dose-dependent improvement”.
